From BindingDB's records for PubMed 8022403 (National Institute of Diabetes, Digestive and Kidney …, 1994) come the findings set out here.

Where only a bound is given, the exact number is not on record here.

One assay concerns the target Adenosine receptor A2a (Rattus norvegicus, UniProt P30543).
In another assay the target is T1, Adenosine receptor A1 (Rattus norvegicus, UniProt P25099).
T1 sequence (P25099 whole entry): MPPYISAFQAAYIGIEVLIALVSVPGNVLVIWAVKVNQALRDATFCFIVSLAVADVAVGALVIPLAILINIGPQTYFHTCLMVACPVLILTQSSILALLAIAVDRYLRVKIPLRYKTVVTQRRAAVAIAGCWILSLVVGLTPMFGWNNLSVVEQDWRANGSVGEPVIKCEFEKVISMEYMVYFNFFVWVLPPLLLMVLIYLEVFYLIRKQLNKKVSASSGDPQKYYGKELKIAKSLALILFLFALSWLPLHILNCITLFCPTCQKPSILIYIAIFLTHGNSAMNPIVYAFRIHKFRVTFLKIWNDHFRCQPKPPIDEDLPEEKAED

Adenosine receptor A2a, sequence (P30543 whole entry): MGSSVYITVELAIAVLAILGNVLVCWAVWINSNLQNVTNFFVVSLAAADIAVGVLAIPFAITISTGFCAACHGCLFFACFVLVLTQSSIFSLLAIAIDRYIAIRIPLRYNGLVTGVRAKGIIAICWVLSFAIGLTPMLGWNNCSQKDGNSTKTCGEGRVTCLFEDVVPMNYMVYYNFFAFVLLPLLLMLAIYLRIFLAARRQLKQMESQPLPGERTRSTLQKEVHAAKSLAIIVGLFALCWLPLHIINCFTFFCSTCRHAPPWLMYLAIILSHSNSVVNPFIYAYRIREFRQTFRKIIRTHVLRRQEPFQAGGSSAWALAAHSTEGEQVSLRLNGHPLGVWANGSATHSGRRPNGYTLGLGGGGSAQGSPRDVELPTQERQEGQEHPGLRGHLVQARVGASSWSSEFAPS

A word on the Ki: it is a measure of affinity in units of concentration, obtained from inhibition or displacement. High values mean lower affinity, low ones higher affinity. As for `CO[C@@H]1[C@H](O)[C@@H](CO)O[C@H]1n1cnc2c(N)ncnc21`, the Ki on Adenosine receptor A2a and on Adenosine receptor A1 was over 10 µM each time.
`CCCCCC[C@H]([C@H](C)O)n1cnc2c(N)ncnc21` (relative stereo) [3-(6-amino-9H-purin-9-yl)nonan-2-ol]: the Ki was over 10 µM on Adenosine receptor A2a and 0.455 µM at Adenosine receptor A1.
As for `Cn1c(=O)[nH]c2c(ncn2C)c1=O` [1,9-Dimethylxanthine], the Ki on Adenosine receptor A2a and at Adenosine receptor A1 was over 10 µM each time.
As to `Nc1ncnc2c1ncn2[C@H]1C[C@H](O)[C@@H](CO)O1` [2'deoxyadenosine], the inhibitory constant (Ki) on Adenosine receptor A2a and at Adenosine receptor A1 was over 10 µM in each case.
Regarding `NCC1OC(n2cnc3c(N)ncnc32)C(O)C1O` (stereo not given) [2-Aminomethyl-5-(6-amino-purin-9-yl)-tetrahydro-furan-3,4-diol], the inhibition constant Ki at Adenosine receptor A2a worked out at 38.5 µM.
Turning to `Nc1nc(S)c2ncn(C3OC(CO)C(O)C3O)c2n1` (stereo not given) [2-azanyl-9-[5-(hydroxymethyl)-3,4-bis(oxidanyl)oxolan-2-yl]-3H-purine-6-thione], the Ki at Adenosine receptor A2a and at Adenosine receptor A1 was over 10 µM each time.
In the case of `Nc1ncnc2c1ncn2[C@@H]1O[C@H](CO)C[C@H]1O` [3'-Deoxyadenosine (cordycepin)], the Ki at Adenosine receptor A2a and on Adenosine receptor A1 was over 10 µM throughout.
Turning to `Cn1cnc2c(=O)[nH]c(=O)n(C)c21` [3,9-dimethyl-3,9-dihydro-1h-purine-2,6-dione], the Ki at Adenosine receptor A2a and on Adenosine receptor A1 was over 10 µM in each case.
For the compound `Nc1ccn([C@@H]2O[C@H](COP(=O)(O)OP(=O)(O)O)[C@@H](O)[C@H]2O)c(=O)n1` [5'-CDP], the inhibition constant Ki at Adenosine receptor A2a and at Adenosine receptor A1 was over 10 µM each time.
Consider `CCNC(=O)[C@H]1O[C@@H](n2cnc3c(=O)[nH]cnc32)[C@H](O)[C@@H]1O` [5'-N-ethylcarboxamidoinosine], for which the Ki on Adenosine receptor A2a and at Adenosine receptor A1 was over 10 µM in each case.
Regarding `Cn1cnc2[nH]c(=O)[nH]c(=O)c21` [7-Methylxanthine], the Ki at Adenosine receptor A2a and on Adenosine receptor A1 was over 10 µM each time.
Turning to `Nc1ncnc2c1nc(Br)n2C1OC(CO)C(O)C1O` (stereo not given) [8-Bromoadenosine], the inhibition constant (Ki) is 22.7 µM on Adenosine receptor A2a and over 10 µM on Adenosine receptor A1.
Consider `C[S+](CC[C@H](N)C(=O)[O-])C[C@H]1O[C@@H](n2cnc3c(N)ncnc32)[C@H](O)[C@@H]1O` (stereo partly drawn) [(2S)-2-amino-4-({[(2S,3S,4R,5R)-5-(6-amino-9H-purin-9-yl)-3,4-dihydroxyoxolan-2-yl]methyl}(methyl)sulfanylium)butanoate], for which the Ki on Adenosine receptor A2a worked out at 2.78 µM; on Adenosine receptor A1 it was 0.675 µM.
On the same counts, the results for `O=c1[nH]c(=O)c2ncn(C3OC(COP(=O)(O)O)C(O)C3O)c2[nH]1` (stereo not given) [CAS_146-80-5] are over 10 µM and over 10 µM.
As to `O=c1[nH]c(=O)c2[nH]c(Cl)nc2[nH]1` [CAS_13548-68-0], the Ki at Adenosine receptor A2a and at Adenosine receptor A1 was over 10 µM each time.
On Adenosine receptor A1, `OCC1OC(n2cnc3c(S)ncnc32)C(O)C1O` (stereo not given) [NSC_1867] displayed a Ki of over 10 µM.
On to `Nc1nc2c(ncn2[C@H]2O[C@@H](COP(=O)(O)O)[C@H](O)[C@@H]2O)c(=O)[nH]1` [NSC_6804], for which the Ki on Adenosine receptor A2a worked out at 85.1 µM; on Adenosine receptor A1 it was 27.8 µM.
In turn, `Nc1ncnc2c1N([C@H]1O[C@@H](CO)[C@H](O)[C@@H]1O)CN2` [T-7-Riboside] displayed a Ki at Adenosine receptor A1 of 27 µM.
Consider `Nc1ncnc2c1ncn2[C@@H]1O[C@H](COP(=O)(O)O)[C@@H](O)[C@H]1O` [adenosine 5 -monophosphate], for which the Ki at Adenosine receptor A2a was over 10 µM.
In the case of `Nc1ncnc2c1ncn2[C@@]1(CO)O[C@H](CO)[C@@H](O)[C@H]1O` [beta-D-Psicofuranosyladenine], the Ki on Adenosine receptor A2a and on Adenosine receptor A1 was over 10 µM in each case.
As for `O=c1ccn(C2OC(COP(=O)(O)OP(=O)(O)O)C(O)C2O)c(=O)[nH]1` (stereo not given) [hydrogen ({[5-(2,4-dioxo-1,2,3,4-tetrahydropyrimidin-1-yl)-3,4-dihydroxyoxolan-2-yl]methylphosphonato}oxy)phosphonate], the Ki on Adenosine receptor A2a and on Adenosine receptor A1 was over 10 µM in each case.
Take `Cc1cn([C@H]2C[C@H](O)[C@@H](CO)O2)c(=O)[nH]c1=O` [thymidine]: the inhibitory constant (Ki) on Adenosine receptor A2a and at Adenosine receptor A1 was over 10 µM throughout.
